Legend:
[1] = biological target: Recombinant human c-Cbl (aa 47-435) (Homo sapiens (Human), UniProt P22681); assay: c-Cbl Biochemical Assay (TR-FRET)
Experimental: Recombinant human c-Cbl (aa 47-435) was expressed in E. coli, purified and biotinylated in vitro. The protein was diluted to 12 nM in freshly prepared assay buffer consisting of 50 mM HEPES, pH 7.0, 100 mM NaCl, 5 mM MgCl2, 0.01% Triton-X 100, 0.01% BSA and 1 mM DTT. Recombinant human Src (aa 254-536)-[…]-Zap-70 (aa 281-297) fusion protein was expressed in E. coli and purified. Protein was diluted in assay buffer to 5-20 nM and ATP was added to 1 mM. Recombinant human UBE2D2([…]) was expressed in E. coli, purified and ubiquitinated and Bodipy labelled in vitro. Protein was diluted to 200 nM in assay buffer without MgCl2 (or Cisbio PPI buffer). Streptavidin-Terbium was added to 2 nM and EDTA to 10 mM, to provide a binding assay mix. Compounds were dissolved in DMSO and diluted to prepare a ten-point half log dilution series. 100 nl of each compound concentration was dispensed in duplicate in a 384 well black assay plate using acoustic dispensing. Wells for maximum signal controls received 100 nl of DMSO only and wells for minimum controls received 100 nl of a reference inhibitor compound at a final assay concentration of […] to produce 100% inhibition. 5 μl of diluted c-cbl enzyme was added to all wells of the assay plate and incubated at RT for 30 min. The enzyme assay was initiated by addition of 5 μl of Src-Zap/ATP mix to all wells, and the plate incubated at RT for 60-90 min. The enzyme reaction was terminated and the binding reaction was initiated by adding 10 μl of binding assay mix to all wells and incubating the plate at RT for 60 min prior to assay read. Final assay conditions consisted of 6 nM c-cbl, 2.5-10 nM Src-Zap70, 0.5 mM ATP, 1% (v/v) DMSO (enzyme reaction) and 100 nM UBE2D2([…])-Ub-FL-BODIPY, 5 mM EDTA, 1 nM Streptavidin-Tb (binding reaction). The HTRF assay signal was measured at 520 nm on an Envision plate reader, with reference signal at 485 or 620 nm. Data was normalized using maximum and minimum assay controls: % Inhibition=100-(100*((maximum control)-unknown)/(maximum control-minimum control)). A 4-parameter dose-response equation was used to fit the normalized dose-response data and derive an IC50 for test compounds.

[2] = biological target: Recombinant human Cbl-b (aa 36-427) (Homo sapiens (Human), UniProt Q13191); assay: Cbl-b Biochemical Assay (TR-FRET); details: read-out: TR-FRET hCbl-b IC50
Chain of Recombinant human Cbl-b (aa 36-427) (Q13191 36-427): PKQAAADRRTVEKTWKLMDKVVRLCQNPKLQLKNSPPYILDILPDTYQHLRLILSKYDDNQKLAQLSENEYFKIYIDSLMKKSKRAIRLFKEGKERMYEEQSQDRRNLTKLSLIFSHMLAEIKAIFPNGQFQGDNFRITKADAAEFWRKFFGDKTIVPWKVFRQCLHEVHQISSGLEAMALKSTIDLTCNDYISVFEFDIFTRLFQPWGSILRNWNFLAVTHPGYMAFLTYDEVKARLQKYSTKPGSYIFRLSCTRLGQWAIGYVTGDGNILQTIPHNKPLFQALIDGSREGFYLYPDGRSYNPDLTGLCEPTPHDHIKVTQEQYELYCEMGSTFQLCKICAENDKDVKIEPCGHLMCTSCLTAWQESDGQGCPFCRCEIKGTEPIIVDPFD
Method in brief: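 Two-step TR-FRET: 6 nM biotinylated Cbl-b preincubated 30-60 min with compound, then 60 min at RT with 1-2.5 nM Src-Zap70 and 0.5 mM ATP in HEPES pH 7.0 buffer, 1% DMSO. Stopped with 5 mM EDTA plus 100 nM UBE2D2-Ub-FL-BODIPY and 1 nM streptavidin-Tb, 60 min; 520 nm signal; IC50 from 4-parameter fit.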

Chain of Recombinant human c-Cbl (aa 47-435) (P22681 47-435): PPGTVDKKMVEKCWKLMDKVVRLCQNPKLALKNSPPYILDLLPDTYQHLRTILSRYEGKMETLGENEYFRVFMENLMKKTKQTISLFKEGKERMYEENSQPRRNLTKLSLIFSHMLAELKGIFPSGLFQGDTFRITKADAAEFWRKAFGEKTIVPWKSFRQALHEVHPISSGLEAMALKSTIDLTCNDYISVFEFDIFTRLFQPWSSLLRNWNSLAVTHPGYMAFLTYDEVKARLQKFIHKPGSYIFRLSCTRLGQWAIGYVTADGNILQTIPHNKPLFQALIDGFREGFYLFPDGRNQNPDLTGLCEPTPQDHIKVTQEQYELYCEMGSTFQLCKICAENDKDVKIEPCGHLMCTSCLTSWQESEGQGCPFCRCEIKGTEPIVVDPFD

Compound	IC50 [1] [nM]	IC50 [2] [nM]
COCC1(NCc2ccc3c(c2)C(=O)N(c2cc(-c4ccc(C#N)cc4-c4nncn4C)cc(C4CC4)n2)C3)CCC1 [AJG-2, 4-(2-cyclopropyl-6-(6-(((1-(methoxymethyl)cyclobutyl)amino)methyl)-1-oxoisoindolin-2-yl)pyridin-4-yl)-3-(4-methyl-4H-1,2,4-triazol-3-yl)benzonitrile]	≤ 200	≤ 200
C[C@@H](NC1COC1)c1ccc2c(c1)C(=O)N(c1cc(-c3ccc(C#N)cc3-c3nncn3C)cc(C3CC3)n1)C2 [AOC-2]	≤ 200	≤ 200
Cn1cnnc1-c1cc(C#N)ccc1-c1cc(C2CC2)nc(N2Cc3ccc(CNCC4(F)COC4)cc3C2=O)c1 [ANL-2, 4-{2-Cyclopropyl-6-[6-({[(3-fluorooxetan-3-yl)methyl]amino}methyl)-1-oxo-3H-isoindol-2-yl]pyridin-4-yl}-3-(4-methyl-1,2,4-triazol-3-yl)benzonitrile]	≤ 200	≤ 200
C[C@H](NCc1ccc2c(c1)C(=O)N(c1cc(-c3ccc(C#N)cc3-c3nncn3C)cc(C3CC3)n1)C2)C1COC1 [ANK-2, (S)-4-(2-Cyclopropyl-6-(6-(((1-(oxetan-3-yl)ethyl)amino)methyl)-1-oxoisoindolin-2-yl)pyridin-4-yl)-3-(4-methyl-4H-1,2,4-triazol-3-yl)benzonitrile]	≤ 200	≤ 200
CNCCNCc1ccc2c(c1)C(=O)N(c1cc(-c3ccc(C#N)cc3-c3nncn3C)cc(C3CC3)n1)C2 [ALZ-3, 4-{2-Cyclopropyl-6-[6-({[2-(methylamino)ethyl]amino}methyl)-1-oxo-3H-isoindol-2-yl]pyridin-4-yl}-3-(4-methyl-1,2,4-triazol-3-yl)benzonitrile]	≤ 200	≤ 200
CCOc1cc(-c2ccc(F)cc2-c2nncn2C)cc(N2Cc3ccc(CO)cc3C2=O)n1 [ANS-1]	200 to 1000	
CCNc1cc(-c2c(-c3nncn3C)cnn2C)cc(N2Cc3c(cc(CN4CC[C@@H](F)C4)cc3C(F)(F)F)C2=O)n1 [ACA-1, (R)-2-(6-(Ethylamino)-4-(1-methyl-4-(4-methyl-4H-1,2,4-triazol-3-yl)-1H-pyrazol-5-yl)pyridin-2-yl)-6-((3-fluoropyrrolidin-1-yl)methyl)-4-(trifluoromethyl)isoindolin-1-one]		≤ 200
Cn1cnnc1-c1ccccc1-c1cc(N2Cc3c(cccc3C(F)(F)F)C2=O)nc(C2(CO)CC2)c1 [ACU-2, 2-(6-(1-(Hydroxymethyl)cyclopropyl)-4-(2-(4-methyl-4H-1,2,4-triazol-3-yl)phenyl)pyridin-2-yl)-4-(trifluoromethyl)isoindolin-1-one]		≤ 200
CCNc1cc(-c2c(-c3nncn3C)cnn2C)cc(N2Cc3c(cc(CN4CCC5(CC5)C4)cc3C(F)(F)F)C2=O)n1 [ABC-7, 6-((5-Azaspiro [2.4]heptan-5-yl)methyl)-2-(6-(ethylamino)-4-(1-methyl-4-(4-methyl-4H-1,2,4-triazol-3-yl)-1H-pyrazol-5-yl)pyridin-2-yl)-4-(trifluoromethyl)isoindolin-1-one]		< 200
CCNc1cc(-c2c(-c3nncn3C)cnn2C)cc(N2Cc3c(cc(OCCN4CCCC4)cc3C(F)(F)F)C2=O)n1 [ACN-5, 2-(6-(Ethylamino)-4-(1-methyl-4-(4-methyl-4H-1,2,4-triazol-3-yl)-1H-pyrazol-5-yl)pyridin-2-yl)-6-(2-(pyrrolidin-1-yl)ethoxy)-4-(trifluoromethyl)isoindolin-1-one]		≤ 200
Cn1cnnc1-c1ccccc1-c1cccc(NC(=O)c2cc(OCCN3CCCC3)nc(C3CC3)n2)c1 [ABK-7, 2-Cyclopropyl-N-(2′-(4-methyl-4H-1,2,4-triazol-3-yl)-[1,1′-biphenyl]-3-yl)-6-(2-(pyrrolidin-1-yl)ethoxy)pyrimidine-4-carboxamide]		200 to 1000
Cn1cnnc1-c1cnn(C)c1-c1cccc(NC(=O)c2cc(=O)n(C)c(C3CC3)n2)c1 [AAE-6, 2-Cyclopropyl-1-methyl-N-[3-[2-methyl-4-(4-methyl-1,2,4-triazol-3-yl)pyrazol-3-yl]phenyl]-6-oxopyrimidine-4-carboxamide]		10000 to 50000
Cn1cnnc1-c1ccccc1-c1cccc(N2Cc3c(cc(CN[C@H]4CCC[C@@H]4O)cc3C(F)(F)F)C2=O)c1 [Example T-2, 6-((((1S,2S)-2-Hydroxycyclopentyl)amino)methyl)-2-(2′-(4-methyl-4H-1,2,4-triazol-3-yl)-[1,1′-biphenyl]-3-yl)-4-(trifluoromethyl)isoindolin-1-one]		≤ 200
Cn1cnnc1-c1cc(C(N)=O)ccc1-c1cccc(N2Cc3c(cccc3C(F)(F)F)C2=O)c1 [ACD-1, 2-(4-Methyl-4H-1,2,4-triazol-3-yl)-3′-(1-oxo-4-(trifluoromethyl)isoindolin-2-yl)-[1,1′-biphenyl]-4-carboxamide]		1000 to 10000
CCNc1cc(-c2c(-c3nncn3C)cnn2C)cc(N2Cc3c(cccc3C(F)(F)F)C2=O)n1 [ACO-1, 2-(6-(Ethylamino)-4-(1-methyl-4-(4-methyl-4H-1,2,4-triazol-3-yl)-1H-pyrazol-5-yl)pyridin-2-yl)-4-(trifluoromethyl)isoindolin-1-one]		≤ 200
Cn1cnnc1-c1ccccc1-c1cccc(N2Cc3c(cccc3C(F)(F)F)C2=O)c1 [AAK-2, 2-(2′-(4-Methyl-4H-1,2,4-triazol-3-yl)-[1,1′-biphenyl]-3-yl)-4-(trifluoromethyl)isoindolin-1-one]		200 to 1000
CCNc1cc(-c2c(-c3nncn3C)cnn2C)cc(N2Cc3c(cc(CN4CCC[C@@H](C)C4)cc3C(F)(F)F)C2=O)n1 [ACE-1, (R)-2-(6-(Ethylamino)-4-(1-methyl-4-(4-methyl-4H-1,2,4-triazol-3-yl)-1H-pyrazol-5-yl)pyridin-2-yl)-6-((3-methylpiperidin-1-yl)methyl)-4-(trifluoromethyl) isoindolin-1-one]		≤ 200
CCNc1cc(-c2ccccc2-c2nncn2C)cc(N2Cc3c(cc(CN4CCC5(CC4)CC5)cc3C(F)(F)F)C2=O)n1 [AI-2, 6-((6-Azaspiro[2.5]octan-6-yl)methyl)-2-(6-(ethylamino)-4-(2-(4-methyl-4H-1,2,4-triazol-3-yl)phenyl)pyridin-2-yl)-4-(trifluoromethyl)isoindolin-1-one]		≤ 200
CCNc1cc(-c2c(-c3nncn3C)cnn2C)cc(NC(=O)c2cc(CN3CCC4(CC4)C3)cc(C3CC3)n2)n1 [ABF-8, 4-((5-Azaspiro [2.4]heptan-5-yl)methyl)-6-cyclopropyl-N-(6-(ethylamino)-4-(1-methyl-4-(4-methyl-4H-1,2,4-triazol-3-yl)-1H-pyrazol-5-yl)pyridin-2-yl)picolinamide]		≤ 200
CCn1ccc2c(-c3ccccc3-c3nncn3C)cc(N3Cc4c(cccc4C(F)(F)F)C3=O)nc21 [Example M-2, 2-(1-Ethyl-4-(2-(4-methyl-4H-1,2,4-triazol-3-yl)phenyl)-1H-pyrrolo[2,3-b]pyridin-6-yl)-4-(trifluoromethyl)isoindolin-1-one]		1000 to 10000
C[C@@H]1CCCN(Cc2cc3c(c(C(F)(F)F)c2)CN(c2cccc(-c4ccccc4-c4nncn4C)c2)C3=O)C1 [Example S-2, (R)-2-(2′-(4-Methyl-4H-1,2,4-triazol-3-yl)-[1,1′-biphenyl]-3-yl)-6-((3-methylpiperidin-1-yl)methyl)-4-(trifluoromethyl)isoindolin-1-one]		200 to 1000
CCNc1cc(-c2c(-c3nncn3C)cnn2C)cc(N2Cc3c(cc(C(=O)N4CC[C@@H](O)C4)cc3C(F)(F)F)C2=O)n1 [ACT-2, (R)-2-(6-(Ethylamino)-4-(1-methyl-4-(4-methyl-4H-1,2,4-triazol-3-yl)-1H-pyrazol-5-yl)pyridin-2-yl)-6-(3-hydroxypyrrolidine-1-carbonyl)-4-(trifluoromethyl)isoindolin-1-one]		≤ 200
Cn1cnnc1-c1ccccc1-c1cc(NCCO)nc(N2Cc3c(cccc3C(F)(F)F)C2=O)c1 [ABT-2, 2-(6-((2-Hydroxyethyl)amino)-4-(2-(4-methyl-4H-1,2,4-triazol-3-yl)phenyl)pyridin-2-yl)-4-(trifluoromethyl)isoindolin-1-one]		200 to 1000
Cn1c(O)nnc1-c1cnccc1-c1cccc(N2Cc3c(cccc3C(F)(F)F)C2=O)c1 [AAS-6, 2-(3-(3-(5-Hydroxy-4-methyl-4H-1,2,4-triazol-3-yl)pyridin-4-yl)phenyl)-4-(trifluoromethyl)isoindolin-1-one]		10000 to 50000
